PubChem BioAssay (NCI)
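The concentration for 50% growth inhibition is given as GI50. TGI marks complete inhibition of growth.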

How the values were obtained:
Assay in all cases: inhibition of tumour cell growth, NCI panel, 384-well format
IGROV1 ovarian = system: IGROV1 ovarian
UACC-257 melanoma = system: UACC-257 melanoma
SNB-75 CNS = system: SNB-75 CNS
HOP-92 NSCLC = system: HOP-92 NSCLC
SK-OV-3 ovarian = system: SK-OV-3 ovarian
EKVX NSCLC = system: EKVX NSCLC
MOLT-4 leukemia = system: MOLT-4 leukemia
KM12 colon = system: KM12 colon
RXF 393 renal = system: RXF 393 renal
T-47D breast = system: T-47D breast
SN12C renal = system: SN12C renal
OVCAR-4 ovarian = system: OVCAR-4 ovarian
MDA-MB-468 breast = system: MDA-MB-468 breast
SNB-19 CNS = system: SNB-19 CNS
NCI/ADR-RES ovarian = system: NCI/ADR-RES ovarian
MDA-MB-231 breast = system: MDA-MB-231 breast
HT29 colon = system: HT29 colon
HCT-15 colon = system: HCT-15 colon
MALME-3M melanoma = system: MALME-3M melanoma
SK-MEL-28 melanoma = system: SK-MEL-28 melanoma
OVCAR-3 ovarian = system: OVCAR-3 ovarian
SR leukemia = system: SR leukemia
CCRF-CEM leukemia = system: CCRF-CEM leukemia
HS 578T breast = system: HS 578T breast
OVCAR-5 ovarian = system: OVCAR-5 ovarian
MCF7 breast = system: MCF7 breast
DU-145 prostate = system: DU-145 prostate
LOX IMVI melanoma = system: LOX IMVI melanoma

Nc1ncc(-c2cnn(CCO)c2)c2scc(-c3ccc(NC(=O)Nc4cccc(F)c4)cc3)c12
TGI (IGROV1 ovarian): 2550 nM
GI50 (UACC-257 melanoma): 311 nM
TGI (UACC-257 melanoma): 1390 nM
GI50 (SNB-75 CNS): 172 nM
TGI (SNB-75 CNS): 740 nM
GI50 (HOP-92 NSCLC): 238 nM
TGI (HOP-92 NSCLC): 1100 nM
GI50 (SK-OV-3 ovarian): 297 nM
TGI (SK-OV-3 ovarian): 1300 nM
GI50 (EKVX NSCLC): 1030 nM
TGI (EKVX NSCLC): 2980 nM
GI50 (MOLT-4 leukemia): < 10 nM
TGI (MOLT-4 leukemia): < 10 nM
GI50 (KM12 colon): < 10 nM
TGI (KM12 colon): 1210 nM
GI50 (RXF 393 renal): 275 nM
TGI (RXF 393 renal): 1460 nM
GI50 (T-47D breast): 1450 nM
TGI (T-47D breast): 3310 nM
GI50 (SN12C renal): 179 nM
TGI (SN12C renal): 555 nM
GI50 (OVCAR-4 ovarian): 674 nM
TGI (OVCAR-4 ovarian): 2380 nM
GI50 (MDA-MB-468 breast): 18.8 nM
TGI (MDA-MB-468 breast): 74.9 nM
GI50 (SNB-19 CNS): 836 nM
TGI (SNB-19 CNS): 2550 nM
GI50 (NCI/ADR-RES ovarian): 363 nM
TGI (NCI/ADR-RES ovarian): 10000 nM
GI50 (MDA-MB-231 breast): 1010 nM
TGI (MDA-MB-231 breast): 3190 nM
GI50 (HT29 colon): 507 nM
TGI (HT29 colon): 2640 nM
GI50 (HCT-15 colon): 349 nM
TGI (HCT-15 colon): 1720 nM
GI50 (MALME-3M melanoma): 53.5 nM
TGI (MALME-3M melanoma): 646 nM
GI50 (SK-MEL-28 melanoma): 402 nM
TGI (SK-MEL-28 melanoma): 1720 nM
GI50 (OVCAR-3 ovarian): 188 nM
TGI (OVCAR-3 ovarian): 2010 nM
GI50 (SR leukemia): < 10 nM
TGI (SR leukemia): < 10 nM
GI50 (CCRF-CEM leukemia): < 10 nM
TGI (CCRF-CEM leukemia): < 10 nM
GI50 (HS 578T breast): 226 nM
TGI (HS 578T breast): 943 nM
GI50 (OVCAR-5 ovarian): 612 nM
TGI (OVCAR-5 ovarian): 2200 nM
GI50 (MCF7 breast): 318 nM
TGI (MCF7 breast): 1830 nM
GI50 (DU-145 prostate): 462 nM
TGI (DU-145 prostate): 2380 nM
GI50 (LOX IMVI melanoma): 318 nM
TGI (LOX IMVI melanoma): 1320 nM
